Experiments:
GLP1R [1] = target: T1, GLP1R (Homo sapiens, UniProt P43220); assay: β-Arrestin-mediated GLP1R internalization assay (PathHunter U2OS cells); format: cell-based; parameters: host or cells: PathHunter engineered U2OS cells; conditions: averaged Bmax where applicable, Percentage of Control GLP-1 (7-37), top 10 μM, 180 min
Procedure, shortened: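 PathHunter U2OS cells co-express untagged GLP1R, EA-tagged β-arrestin and an endosome-localized PK tag, so internalization gives β-galactosidase complementation. Agonist (top final concentration 10 μM) applied for 180 min at 37 °C, then chemiluminescence read after 60 min detection. EC50 from 4-parameter logistic fits.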
Target sequence in this assay (P43220 24-463): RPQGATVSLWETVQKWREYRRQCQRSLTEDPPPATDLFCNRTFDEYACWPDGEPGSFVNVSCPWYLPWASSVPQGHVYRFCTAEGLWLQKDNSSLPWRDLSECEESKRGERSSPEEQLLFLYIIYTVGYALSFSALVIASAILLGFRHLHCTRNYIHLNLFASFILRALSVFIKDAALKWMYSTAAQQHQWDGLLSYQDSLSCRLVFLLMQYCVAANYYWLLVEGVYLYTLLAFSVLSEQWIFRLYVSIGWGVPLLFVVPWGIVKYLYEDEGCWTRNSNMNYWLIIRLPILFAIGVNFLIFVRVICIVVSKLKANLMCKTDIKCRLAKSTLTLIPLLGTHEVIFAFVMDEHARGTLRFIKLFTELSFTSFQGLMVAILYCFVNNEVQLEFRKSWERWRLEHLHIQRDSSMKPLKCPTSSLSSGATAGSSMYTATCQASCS
Target sequence in this assay (P32121 whole entry partner): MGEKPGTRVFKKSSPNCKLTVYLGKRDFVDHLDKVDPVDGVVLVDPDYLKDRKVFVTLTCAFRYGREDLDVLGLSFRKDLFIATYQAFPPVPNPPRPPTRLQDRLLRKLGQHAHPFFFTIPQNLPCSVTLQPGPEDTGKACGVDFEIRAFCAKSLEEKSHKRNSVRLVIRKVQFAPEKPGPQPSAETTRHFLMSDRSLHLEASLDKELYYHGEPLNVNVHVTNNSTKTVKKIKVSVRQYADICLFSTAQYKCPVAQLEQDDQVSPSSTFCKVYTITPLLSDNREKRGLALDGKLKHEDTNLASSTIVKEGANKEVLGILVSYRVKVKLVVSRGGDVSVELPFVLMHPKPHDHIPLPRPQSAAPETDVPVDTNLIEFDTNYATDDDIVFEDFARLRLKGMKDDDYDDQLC

GLP1R [2] = target: T1, GLP1R; assay: GLP1R cAMP assay (HTRF), HEK293/GLP-1R/CRE/Luc, Clone 4
Target sequence in this assay (P43220 24-463): as the sequence (P43220 24-463) above
Experimental: The human GLP-1R coding sequence (NCBI Reference Sequence NM_002062) was subcloned into pcDNA3.1+/Hygro vector (Invitrogen) and transfected into HEK293/CRE/Luc parental cell line. A cell line stably expressing the receptor was isolated.
Varying concentrations of each compound to be tested (in DMSO) were diluted in DMSO to obtain 200× compound working solution first and then 50 nl compounds were added to a white 384-well assay plate (Greiner 784075) with ECHO. The final DMSO concentration was 0.5%.
Cells were removed from cryopreservation, re-suspended in 5 mL of Dulbecco's Phosphate Buffered Saline (DPBS-Sigma Cat #D8537) and centrifuged at 900×g for 5 min at 22° C. The cell pellet was then re-suspended in 1 mL of assay buffer [DPBS with 500 μM IBMX (Sigma #15879) and 0.1% BSA (Sigma #A1933). IBMX and BSA were freshly added on the day of assay]. A 10 μL sample of the cell suspension was counted on an Invitrogen Countess II to determine cell viability and cell count per mL. The remaining cell suspension was then adjusted with assay buffer to deliver 1000 viable cells per well using a Matrix Combi Multidrop reagent dispenser. 10 μL cell suspensions were added to each well
of the assay plate which already contains compound. The plate was sealed and incubated at 37° C. with 5% CO2 for 30 minutes.
Following the 30 minute incubation, 5 μL of labeled d2 cAMP and 5 μL of anti-cAMP antibody (both diluted 1:20 in cell lysis buffer; as described in the manufacturer's assay protocol) were added to each well of the assay plate. The plates were then incubated at room temperature and after 60 minutes, changes in the HTRF signal were read with an Envision multi-label plate reader using excitation of 330 nm and emissions of 615 and 665 nm. Raw data were converted to nM cAMP by interpolation from a cAMP standard curve (as described in the manufacturer's assay protocol) and the percent effect was determined relative to a saturating concentration of the full agonist GLP-17-37 (10 nM) included on each plate. EC50 determinations were made from agonist dose-response curves analyzed with a curve fitting program using a 4-parameter logistic dose response equation.

GLP1R [3] = target: T1, GLP1R; assay: cAMP assay in CHO cells stably expressing hGLP-1R; format: cell-based; parameters: expressed in transfected cells; host or cells: CHO cells stably transfected; conditions: CHO cells stably expressing hGLP-1R (Table 2), read-out: CHO cAMP stable EC50
Experimental: GLP-1R-mediated agonist activity was determined with a cell-based functional assay utilizing an HTRF (Homogeneous Time-Resolved Fluorescence) cAMP detection kit (cAMP Dynamic 2 Assay Kit; CisBio cat #62AM4PEC) that measures cAMP levels in the cell. The method is a competitive immunoassay between native cAMP produced by the cells and exogenous cAMP labeled with the dye d2. The tracer binding is visualized by a mAb anti-cAMP labeled with Cryptate. The specific signal (i.e., energy transfer) is inversely proportional to the concentration of cAMP in either standard or experimental sample.
Following the 30 minute incubation, 5 μL of labeled d2 cAMP and 5 μL of anti-cAMP antibody (both diluted 1:20 in cell lysis buffer; as described in the manufacturer's assay protocol) were added to each well of the assay plate. […] Raw data were converted to nM cAMP by interpolation from a cAMP standard curve (as described in the manufacturer's assay protocol) and the percent effect was determined relative to a saturating concentration of the full agonist GLP-17-37 (10 nM) included on each plate. EC50 determinations were made from agonist dose-response curves analyzed with a curve fitting program using a 4-parameter logistic dose response equation. […]
Target sequence in this assay (P43220 24-463): as above

GLP1R [4] = target: T1, GLP1R; parameters: Emax: dose or concentration left out as unconfirmed; conditions: CHO-K1, […], read-out: β-arrestin recruitment Bmax (%)
Target sequence in this assay (P43220 24-463): as above
Target sequence in this assay (P32121 whole entry partner): as the sequence (P32121 whole entry partner) above
Experimental: Frozen cells were quickly thawed and 10 mL of cell plating medium (provided by the kit) was added to thawed cells. Cells were stored in a 37° C. incubator under 5% CO2 and kept for approximately 48 hours until ready to run the assay.
Reference and test compounds were dissolved in 100% DMSO. […] 5 μL of this solution was added to 20 μL cell medium in assay plate for a final top concentration of 10 μM. Plates were then incubated at 37° C. under 5% CO2 for 90 min.
Following 90 min incubation, detection reagents were made up by combining 1 part Galacton Star Substrate with 5 parts Emerald II™ Solution, and 19 parts of PathHunter Cell Assay Buffer, respectively. 12.5 μl detection reagent was added to each well. The plates were then incubated at room temperature in dark for 60 min. Plates were then read on Envision for 0.1 sec/well.
Cells were plated at a density of 1000 or 2000 cells/20 μL/well. Frozen cells were quickly thawed and added to 10 mL of cell plating medium. Cells were stored in a 37 degree incubator under 5% CO2 and left for approximately 48 hours until ready to run the assay
Prepare 10× concentration of an agonist in serum free DMEM, and add all solutions into the compound plate. 2.5 μL of this solution was added to 20 μL cell medium in assay plate for a final top concentration of 10 μM. Plates were incubated at 37° C. under 5% CO2 for 30 min. An additional 2.5 μL of Buffer was added to the entire plate for agonist mode and incubated at 37° C. for another 90 min.
Following 90 min incubation, detection reagents were made up as described. 12.5 μL was added to all wells. The plates were then incubated at room temperature in dark for 60 min. Plates were then read on Envision for 0.1 sec/well.
Data analysis: GraphPad Prism 6 was used for establishment of progression curve. EC50s or IC50s were determined by 4-parameter logistic dose response equation.

Row | β-arrestin internalization Bmax (POC) (GLP1R [1]) | EC50 (GLP1R [2]) [µM] | EC50 (GLP1R [3]) [µM] | Emax (GLP1R [4]) [%] | Structure (SMILES)
1 | 29.6 | < 0.015 | < 0.015 | 42.2 ± 2.68 | N#Cc1ccc(COc2cccc(-c3cc(F)c(Cc4nc5ccc(C(=O)O)nc5n4C[C@@H]4CCO4)cc3F)n2)c(F)c1 [Compound 292, (S)-2-(4-(6-((4-cyano-2-fluorobenzyl)oxy)pyridin-2-yl)-2,5-difluorobenzyl)-3-(oxetan-2-ylmethyl)-3H-imidazo[4,5-b]pyridine-5-carboxylic acid]
2 | 28.4 | < 0.015 | < 0.015 | 39.2 ± 4.75 | O=C(O)c1ccc2nc(Cc3cc(F)c(-c4cccc(OCc5ccc(-n6ccnc6)cc5)n4)cc3F)n(C[C@@H]3CCO3)c2n1 [Compound 303, (S)-2-(4-(6-(4-(1H-imidazol-1-yl)benzyloxy)pyridin-2-yl)-2,5-difluorobenzyl)-3-(oxetan-2-ylmethyl)-3H-imidazo[4,5-b]pyridine-5-carboxylic acid]
3 | 26.7 ± 4.53 | < 0.015 | < 0.015 | 38.8 ± 7.09 | O=C(O)c1ccc2nc(Cc3ccc(-c4nccc(OCc5ccc(Cl)cc5F)n4)cc3F)n(C[C@@H]3CCO3)c2c1F [Compound 311, (S)-2-(4-(4-((4-chloro-2-fluorobenzyl)oxy)pyrimidin-2-yl)-2-fluorobenzyl)-7-fluoro-1-(oxetan-2-ylmethyl)-1H-benzo[d]imidazole-6-carboxylic acid]
4 | 45.2 | < 0.015 | < 0.015 | 33.4 ± 2.13 | N#Cc1ccc(COc2nc(-c3ccc(Cc4nc5ccc(C(=O)O)c(F)c5n4C[C@@H]4CCO4)c(F)c3)ncc2F)c(F)c1 [Compound 312, (S)-2-(4-(4-((4-cyano-2-fluorobenzyl)oxy)-5-fluoropyrimidin-2-yl)-2-fluorobenzyl)-7-fluoro-1-(oxetan-2-ylmethyl)-1H-benzo[d]imidazole-6-carboxylic acid]

Reference: US10954221B2, “GLP-1R agonists and uses thereof” (QILU REGOR THERAPEUTICS INC., priority 2019, dated 2021)
